# Experimental data as given in US20240269139A1, “COMPOUNDS FOR TARGETED PROTEIN DEGRADATION OF KINASES” (DANA-FARBER CANCER INSTITUTE, INC., priority 2020, published 2024).
# Values joined by “and” are separate entries in the source; they are usually repeats but may differ in a detail not shown here. Equal values may be shown once. Read-outs that look alike come from different tables or passages of the source.
# Legend:
# Format in all cases: cell-based
# [1] = target: protein kinases (human kinome) (Homo sapiens, UniProt P42684); details: for logFC: ABL2 (P42684) protein abundance, degrader vs DMSO, down
# [2] = target: protein kinases (human kinome) (Homo sapiens, UniProt Q07912); details: for logFC TNK2 (Q07912-1): direction down; for logFC TNK2: TNK2 (Q07912-1)
# [3] = target: protein kinases (human kinome) (Homo sapiens, UniProt Q8TDR2)
# [4] = target: protein kinases (human kinome) (Homo sapiens, UniProt P50613); details: for logFC: CDK7 (P50613) protein abundance, degrader vs DMSO, down; for logFC CDK7: CDK7 P50613
# [5] = target: T1, protein kinases (human kinome) (Homo sapiens, UniProt Q53H12); details: direction down
# T1 sequence (Q53H12 1-422): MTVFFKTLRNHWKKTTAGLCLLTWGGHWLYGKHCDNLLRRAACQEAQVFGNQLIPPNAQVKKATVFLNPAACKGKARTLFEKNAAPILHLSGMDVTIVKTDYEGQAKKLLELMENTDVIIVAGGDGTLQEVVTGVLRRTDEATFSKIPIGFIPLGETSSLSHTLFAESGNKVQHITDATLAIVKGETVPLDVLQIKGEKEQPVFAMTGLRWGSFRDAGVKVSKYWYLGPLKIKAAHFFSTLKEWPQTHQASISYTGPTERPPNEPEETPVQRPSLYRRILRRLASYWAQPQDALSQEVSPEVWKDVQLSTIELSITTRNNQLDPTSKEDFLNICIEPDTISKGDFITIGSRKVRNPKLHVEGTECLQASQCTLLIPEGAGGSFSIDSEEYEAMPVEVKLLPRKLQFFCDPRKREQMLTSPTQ
# [6] = target: T2, protein kinases (human kinome) (Homo sapiens, UniProt Q9UEE5); details: STK17A Q9UEE5
# T2 sequence (Q9UEE5 1-414): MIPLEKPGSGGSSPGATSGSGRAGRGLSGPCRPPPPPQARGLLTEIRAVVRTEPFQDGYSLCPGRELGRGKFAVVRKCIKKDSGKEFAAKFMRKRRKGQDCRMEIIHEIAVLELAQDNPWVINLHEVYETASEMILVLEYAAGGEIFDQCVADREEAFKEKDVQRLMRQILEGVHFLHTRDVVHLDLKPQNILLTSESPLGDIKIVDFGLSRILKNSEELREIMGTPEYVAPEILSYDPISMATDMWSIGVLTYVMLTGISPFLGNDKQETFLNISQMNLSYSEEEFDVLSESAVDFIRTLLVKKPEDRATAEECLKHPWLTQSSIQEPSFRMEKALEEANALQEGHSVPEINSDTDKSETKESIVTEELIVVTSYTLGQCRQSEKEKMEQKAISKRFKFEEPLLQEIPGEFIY
# [7] = target: T3, protein kinases (human kinome) (Homo sapiens, UniProt O94768); details: for logFC STK17B (O94768): direction down; for logFC: STK17B (O94768)
# T3 sequence (O94768 1-372): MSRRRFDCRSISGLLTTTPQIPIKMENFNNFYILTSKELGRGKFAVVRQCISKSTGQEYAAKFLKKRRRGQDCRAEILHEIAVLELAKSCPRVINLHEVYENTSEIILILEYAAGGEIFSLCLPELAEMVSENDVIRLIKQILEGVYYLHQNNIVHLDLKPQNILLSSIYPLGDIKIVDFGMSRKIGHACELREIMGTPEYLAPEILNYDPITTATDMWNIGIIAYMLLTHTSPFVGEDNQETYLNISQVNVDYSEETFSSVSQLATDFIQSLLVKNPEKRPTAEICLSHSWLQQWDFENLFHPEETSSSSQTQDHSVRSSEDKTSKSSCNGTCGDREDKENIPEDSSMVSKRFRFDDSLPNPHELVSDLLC
# [8] = Accession Q8TDR2, experiment wp131, direction down
# [9] = STK35 (Q8TDR2), experiment wp131
# Chain of protein kinases (human kinome) (Homo sapiens, UniProt P42684) (P42684 whole entry): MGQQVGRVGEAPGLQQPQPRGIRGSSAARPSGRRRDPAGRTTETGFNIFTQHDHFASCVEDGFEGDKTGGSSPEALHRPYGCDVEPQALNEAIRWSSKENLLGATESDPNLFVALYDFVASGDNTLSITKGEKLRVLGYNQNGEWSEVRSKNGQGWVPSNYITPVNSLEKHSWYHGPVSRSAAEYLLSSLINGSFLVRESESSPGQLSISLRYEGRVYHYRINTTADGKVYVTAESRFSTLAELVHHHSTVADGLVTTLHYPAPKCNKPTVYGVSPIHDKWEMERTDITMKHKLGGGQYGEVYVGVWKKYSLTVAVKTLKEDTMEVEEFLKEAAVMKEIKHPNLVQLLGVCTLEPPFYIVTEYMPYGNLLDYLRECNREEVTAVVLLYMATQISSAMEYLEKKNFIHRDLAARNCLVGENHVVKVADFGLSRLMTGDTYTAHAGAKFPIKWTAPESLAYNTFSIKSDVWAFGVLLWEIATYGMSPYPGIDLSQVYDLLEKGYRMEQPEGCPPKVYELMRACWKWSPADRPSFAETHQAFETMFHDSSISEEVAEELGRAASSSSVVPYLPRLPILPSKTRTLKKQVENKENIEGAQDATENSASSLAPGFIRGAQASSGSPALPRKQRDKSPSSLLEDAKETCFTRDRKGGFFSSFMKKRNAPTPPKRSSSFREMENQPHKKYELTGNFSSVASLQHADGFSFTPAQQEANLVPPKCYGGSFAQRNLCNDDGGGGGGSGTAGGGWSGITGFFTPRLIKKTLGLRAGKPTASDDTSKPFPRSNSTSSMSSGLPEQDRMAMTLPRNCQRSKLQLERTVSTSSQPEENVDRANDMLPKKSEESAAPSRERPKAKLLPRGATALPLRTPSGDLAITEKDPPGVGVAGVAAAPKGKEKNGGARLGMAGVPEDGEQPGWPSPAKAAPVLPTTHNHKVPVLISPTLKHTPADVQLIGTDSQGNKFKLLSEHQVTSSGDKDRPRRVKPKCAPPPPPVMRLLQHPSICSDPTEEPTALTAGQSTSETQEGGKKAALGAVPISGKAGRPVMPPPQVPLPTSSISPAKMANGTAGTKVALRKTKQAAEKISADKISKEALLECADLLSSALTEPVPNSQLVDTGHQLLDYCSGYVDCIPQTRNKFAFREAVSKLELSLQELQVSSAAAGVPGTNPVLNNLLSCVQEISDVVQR
# Chain of protein kinases (human kinome) (Homo sapiens, UniProt Q07912) (Q07912 whole entry): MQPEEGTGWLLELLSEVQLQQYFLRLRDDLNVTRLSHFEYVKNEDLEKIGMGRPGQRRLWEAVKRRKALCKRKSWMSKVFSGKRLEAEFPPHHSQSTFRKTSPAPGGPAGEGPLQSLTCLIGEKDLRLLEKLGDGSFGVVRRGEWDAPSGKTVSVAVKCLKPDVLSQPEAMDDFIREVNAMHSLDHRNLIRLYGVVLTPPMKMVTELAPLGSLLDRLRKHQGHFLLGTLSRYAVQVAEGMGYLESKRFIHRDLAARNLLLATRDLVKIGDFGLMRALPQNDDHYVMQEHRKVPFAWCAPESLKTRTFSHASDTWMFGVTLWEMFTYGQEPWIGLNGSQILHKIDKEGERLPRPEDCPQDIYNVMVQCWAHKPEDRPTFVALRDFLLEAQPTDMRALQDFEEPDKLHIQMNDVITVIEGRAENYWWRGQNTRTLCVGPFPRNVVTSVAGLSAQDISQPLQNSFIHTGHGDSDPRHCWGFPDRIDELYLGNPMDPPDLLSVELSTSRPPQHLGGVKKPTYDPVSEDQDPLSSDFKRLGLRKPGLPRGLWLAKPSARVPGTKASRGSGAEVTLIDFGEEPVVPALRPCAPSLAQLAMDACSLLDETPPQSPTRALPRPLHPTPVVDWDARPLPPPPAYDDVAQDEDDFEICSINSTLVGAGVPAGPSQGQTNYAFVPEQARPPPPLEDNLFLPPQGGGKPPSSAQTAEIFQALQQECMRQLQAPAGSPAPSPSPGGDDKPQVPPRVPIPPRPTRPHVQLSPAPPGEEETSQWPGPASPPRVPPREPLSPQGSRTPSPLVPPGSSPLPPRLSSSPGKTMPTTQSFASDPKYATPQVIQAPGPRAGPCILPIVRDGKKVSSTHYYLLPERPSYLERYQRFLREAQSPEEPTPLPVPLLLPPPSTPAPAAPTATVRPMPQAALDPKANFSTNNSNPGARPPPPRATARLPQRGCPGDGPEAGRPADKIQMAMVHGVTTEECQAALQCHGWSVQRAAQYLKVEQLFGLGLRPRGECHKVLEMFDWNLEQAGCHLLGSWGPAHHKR
# Chain of protein kinases (human kinome) (Homo sapiens, UniProt Q8TDR2) (Q8TDR2 whole entry): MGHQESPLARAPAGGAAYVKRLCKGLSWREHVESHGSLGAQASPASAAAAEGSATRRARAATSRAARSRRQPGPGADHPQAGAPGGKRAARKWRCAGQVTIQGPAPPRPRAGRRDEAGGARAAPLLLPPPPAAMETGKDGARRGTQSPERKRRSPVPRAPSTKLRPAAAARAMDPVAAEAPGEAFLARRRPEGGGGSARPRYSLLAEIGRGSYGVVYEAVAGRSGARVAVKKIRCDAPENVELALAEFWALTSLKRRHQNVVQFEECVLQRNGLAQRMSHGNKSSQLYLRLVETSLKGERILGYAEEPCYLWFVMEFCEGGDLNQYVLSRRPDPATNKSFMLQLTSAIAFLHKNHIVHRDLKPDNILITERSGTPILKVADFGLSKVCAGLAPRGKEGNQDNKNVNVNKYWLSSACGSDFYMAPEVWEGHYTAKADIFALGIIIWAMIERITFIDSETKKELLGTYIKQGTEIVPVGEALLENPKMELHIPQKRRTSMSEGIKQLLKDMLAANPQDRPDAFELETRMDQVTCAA
# Chain of protein kinases (human kinome) (Homo sapiens, UniProt P50613) (P50613 whole entry): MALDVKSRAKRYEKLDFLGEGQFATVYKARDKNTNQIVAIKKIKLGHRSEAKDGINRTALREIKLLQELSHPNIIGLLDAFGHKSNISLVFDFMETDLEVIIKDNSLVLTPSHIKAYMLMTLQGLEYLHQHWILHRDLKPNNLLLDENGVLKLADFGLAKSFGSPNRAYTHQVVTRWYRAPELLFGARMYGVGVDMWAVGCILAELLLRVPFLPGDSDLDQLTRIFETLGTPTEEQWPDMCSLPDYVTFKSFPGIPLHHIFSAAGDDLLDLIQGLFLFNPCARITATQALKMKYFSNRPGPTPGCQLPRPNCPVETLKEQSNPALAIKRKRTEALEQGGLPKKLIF
smiles,measurement,setting,value
Cc1ccc(NC(=O)c2cccc(C(F)(F)F)c2)cc1N1Cc2cnc(Nc3ccc(N4CCN(CCCCC(=O)N[C@H](C(=O)N5C[C@H](O)C[C@H]5C(=O)N[C@@H](C)c5ccc(-c6scnc6C)cc5)C(C)(C)C)CC4)nc3)nc2N(C)C1=O [DB1113],logFC,[1],−1.723
same,logFC ABL2 (P42684),[1]; Experiment wp168,−1.723
same,logFC TNK2 (Q07912-1),[2]; Experiment wp168,−0.5351
same,logFC TNK2,[2]; experiment wp168,−0.5351
same,logFC STK35,"[3]; Accession Q8TDR2, experiment wp168, direction down",−0.7606
same,logFC STK35,"[3]; STK35 (Q8TDR2), experiment wp168",−0.7606
Cc1ncsc1-c1ccc([C@H](C)NC(=O)[C@@H]2C[C@@H](O)CN2C(=O)[C@@H](NC(=O)CCOCCOCCN2CCN(c3ccc(Nc4ncc(Cl)c(Nc5ccccc5S(=O)(=O)C(C)C)n4)cc3)CC2)C(C)(C)C)cc1 [FMF.06.098.1],logFC TNK2 (Q07912-1),[2]; Experiment wp108,−0.5108
same,logFC TNK2 (Q07912-1),[2]; Experiment wp131,−0.5805
same,logFC TNK2,[2]; experiment wp108,−0.5108
same,logFC TNK2,[2]; experiment wp131,−0.5805
same,logFC,[4],−0.9016 and −1.137 and −0.9756
same,logFC CDK7,[4]; experiment wp108,−0.9016
same,logFC CDK7,[4]; experiment wp114,−1.137
same,logFC CDK7,[4]; experiment wp131,−0.9756
same,logFC STK35,"[3]; Accession Q8TDR2, experiment wp108, direction down",−0.6029
same,logFC STK35,"[3]; Accession Q8TDR2, experiment wp114, direction down",−0.5116
same,logFC STK35,[3]; [8],−0.656
same,logFC STK35,"[3]; STK35 (Q8TDR2), experiment wp108",−0.6029
same,logFC STK35,"[3]; STK35 (Q8TDR2), experiment wp114",−0.5116
same,logFC STK35,[3]; [9],−0.656
Cc1cnc(Nc2ccc(N3CCN(CCOCCOCCNC(=O)COc4cccc5c4C(=O)N(C4CCC(=O)NC4=O)C5=O)CC3)cc2)nc1Nc1cccc(S(=O)(=O)NC(C)(C)C)c1 (stereo not drawn) [JWG.118],logFC AGK (Q53H12),[5]; Experiment wp071,−0.5599
CNC(=O)c1ccccc1Nc1cc(Nc2ccc(N3CCN(CCOCCOCCNC(=O)CNc4cccc5c4C(=O)N(C4CCC(=O)NC4=O)C5=O)CC3)cc2OC)ncc1C(F)(F)F (stereo not drawn) [MFH.5.103.1],logFC AGK (Q53H12),[5]; Experiment wp076,−0.3672
same,logFC,[4],−0.5098
same,logFC CDK7,[4]; experiment wp076,−0.5098
"Cc1ncsc1-c1ccc([C@H](C)NC(=O)[C@@H]2C[C@@H](O)CN2C(=O)[C@@H](NC(=O)CCCCCN2CCN(c3ccc(Nc4ncc5scc(-c6cccc(NS(C)(=O)=O)c6)c5n4)cc3)CC2)C(C)(C)C)cc1 [RSS0680, (2S,4R)-1-((S)-3,3-Dimethyl-2-(6-(4-(4-((7-(3-(methylsulfonamido)phenyl)thieno[3,2-d]pyrimidin-2-yl)amino)phenyl)piperazin-1-yl)hexanamido)butanoyl)-4-hydroxy-N—((S)-1-(4-(4-methylthiazol-5yl)phenyl)ethyl)pyrrolidine-2-carboxamide]",logFC,[6]; experiment wp080,−1.118
same,logFC STK17A,[6]; experiment wp080,−1.118
same,logFC,[6]; experiment wp117,−1.379
same,logFC STK17A,[6]; experiment wp117,−1.379
same,logFC STK17B (O94768),[7]; Experiment wp080,−1.375
same,logFC STK17B (O94768),[7]; Experiment wp117,−1.373
same,logFC,[7]; experiment wp080,−1.375
same,logFC,[7]; experiment wp117,−1.373
same,logFC,[4],−1.017 and −1.219
same,logFC CDK7,[4]; experiment wp080,−1.017
same,logFC CDK7,[4]; experiment wp117,−1.219
same,logFC STK35,"[3]; Accession Q8TDR2, experiment wp117, direction down",−0.3937
same,logFC STK35,"[3]; STK35 (Q8TDR2), experiment wp117",−0.3937
Nc1ncnc2c1c(-c1ccc(Oc3ccccc3)cc1)nn2[C@H]1CC[C@H](N2CCN(CCOCCNC(=O)CNc3cccc4c3C(=O)N(C3CCC(=O)NC3=O)C4=O)CC2)CC1 (stereo partly drawn) [SB1.G.181],logFC,[1],−2.405
same,logFC ABL2 (P42684),[1]; experiment wp071,−2.405
same,logFC AGK (Q53H12),[5]; Experiment wp071,−0.3991
Cc1ccc(C(=O)Nc2ccc(CN3CCN(CCCOCCOCCOCCNC(=O)COc4cccc5c4C(=O)N(C4CCC(=O)NC4=O)C5=O)CC3)c(C(F)(F)F)c2)cc1C#Cc1cnc2cccnn12 (stereo not drawn) [SB1.G.187],logFC,[1],−0.6252 and −0.6455
same,logFC ABL2 (P42684),[1]; Experiment wp107,−0.6455
same,logFC ABL2 (P42684),[1]; experiment wp056,−0.6252
same,logFC AGK (Q53H12),[5]; Experiment wp056,−0.5707
CC(C)S(=O)(=O)c1ccccc1Nc1nc(Nc2ccc(N3CCN(CCOCCOCCNC(=O)CNc4cccc5c4C(=O)N(C4CCC(=O)NC4=O)C5=O)CC3)cc2)ncc1Cl (stereo not drawn) [TL12.186],logFC,[1],−0.803
same,logFC ABL2 (P42684),[1]; experiment wp137,−0.803
same,logFC TNK2 (Q07912-1),[2]; Experiment wp131,−2.251
same,logFC TNK2 (Q07912-1),[2]; Experiment wp137,−1.575
same,logFC TNK2,[2]; experiment wp131,−2.251
same,logFC TNK2,[2]; experiment wp137,−1.575
same,logFC,[6]; experiment wp137,−0.5054
same,logFC STK17A,[6]; experiment wp137,−0.5054
same,logFC,[4],−0.7603 and −0.6447 and −0.7438
same,logFC CDK7,[4]; experiment wp016,−0.7603
same,logFC CDK7,[4]; experiment wp131,−0.6447
same,logFC CDK7,[4]; experiment wp137,−0.7438
same,logFC STK35,[3]; [8],−0.4135
same,logFC STK35,"[3]; Accession Q8TDR2, experiment wp137, direction down",−0.4079
same,logFC STK35,[3]; [9],−0.4135
same,logFC STK35,"[3]; STK35 (Q8TDR2), experiment wp137",−0.4079
